Read-outs that look alike come from different tables or passages of the source.
Columns and labels:
[1] = test system: Beet Armyworm (Spodoptera exigua, LAPHEG); assay: Bioassays on Beet Armyworm (BAW), 128-well diet tray assay; assay type: in vivo; conditions: Spodoptera exigua
How it was run: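 Larvae at second instar are exposed on dried, compound-treated diet (50 μg/cm^2, delivered in 90:10 acetone-water) in eight replicate wells. After five to seven days at 25° C., 14:10 light-dark, percent mortality in each well is scored and the eight wells averaged.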

[2] = test system: Cabbage Looper (Trichoplusia ni, TRIPNI); assay: Bioassays on Cabbage Looper (CL), 128-well diet tray assay; assay type: in vivo; conditions: Trichoplusia ni
How it was run: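 Percent mortality, averaged across eight replicate wells, after second-instar larvae (1–5 per well) fed for five to seven days on diet dosed at 50 μg/cm^2. Compound was applied in acetone-water 90:10 and dried; trays kept vented at 25° C under 14:10 photoperiod.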

[3] = Table ABC: Biological Results, species BAW, read-out: BAW
[4] = Table ABC: Biological Results, species CL, read-out: CL
[5] = Beet Armyworm, Table ABC / ABC-DP rating, read-out: BAW rating
[6] = Cabbage Looper, Table ABC / ABC-DP rating, read-out: CL rating
[7] = Beet Armyworm, rating class, read-out: BAW
[8] = Cabbage Looper, rating class, read-out: CL

Work on COc1ccc(C(=O)Nc2c(F)ccc(NC(=O)c3cc(NC(=O)[C@H]4[C@H](c5ccc(F)c(C(F)(F)F)c5)C4(Cl)Cl)ccc3Cl)c2F)cc1 [F1205, 2-Chloro-5-((1R,3R)-2,2-dichloro-3-(4-fluoro-3-(trifluoromethyl)phenyl)cyclopropane-1-carboxamido)-N-(2,4-difluoro-3-(4-methoxybenzamido)phenyl)benzamide] yielded a pest or weed control at 50 µg/cm2 [1, 3] of 50 to 100% and a pest or weed control at 50 µg/cm2 [2, 4] of 50 to 100%.
Work on O=C(Nc1ccccc1)c1cc(NC(=O)[C@H]2[C@H](c3ccc(F)c(Cl)c3)C2(Cl)Cl)cc(F)c1F (relative stereo) [F1207, trans-5-(2,2-Dichloro-3-(3-chloro-4-fluorophenyl)cyclopropane-1-carboxamido)-2,3-difluoro-N-phenylbenzamide] yielded a pest or weed control at 50 µg/cm2 [1, 3] of 50 to 100% and a pest or weed control at 50 µg/cm2 [2, 4] of 50 to 100%.
With COc1c(F)ccc(NC(=O)c2cc(NC(=O)[C@H]3[C@H](c4cc(Cl)cc(Cl)c4)C3(Cl)Cl)ccc2Cl)c1F (relative stereo) [F1171, trans-2-chloro-5-(2,2-dichloro-3-(3,5-dichlorophenyl)cyclopropane-1-carboxamido)-N-(2,4-difluoro-3-methoxyphenyl)benzamide] the pest or weed control at 50 µg/cm2 [1, 3] was 50 to 100% and the pest or weed control at 50 µg/cm2 [2, 4] was 50 to 100%.
For CCNC(=O)c1cc(NC(=O)[C@H]2[C@H](c3ccc(F)c(Cl)c3)C2(Cl)Cl)cc(F)c1F (relative stereo) [F2051, trans-5-(2,2-Dichloro-3-(3-chloro-4-fluorophenyl)cyclopropane-1-carboxamido)-N-ethyl-2,3-difluorobenzamide], the pest or weed control at 50 µg/cm2 [1, 5] was 50 to 100% and the pest or weed control at 50 µg/cm2 [2, 6] was 50 to 100%.
O=C(Nc1ccc(F)c(NC(=O)C(F)F)c1F)c1cc(NC(=O)[C@H]2[C@H](c3cc(Cl)c(Cl)c(Cl)c3)C2(Cl)Cl)ccc1Cl [F1269, 2-Chloro-5-((1R,3R)-2,2-dichloro-3-(3,4,5-trichlorophenyl)cyclopropane-1-carboxamido)-N-(3-(2,2-difluoroacetamido)-2,4-difluorophenyl)benzamide] was tested, and the pest or weed control at 50 µg/cm2 [1, 3] was 50 to 100% and the pest or weed control at 50 µg/cm2 [2, 4] was 50 to 100%.
With O=C(Nc1ccc(F)c(NC(=O)C(F)(F)F)c1)c1cc(NC(=O)[C@H]2[C@H](c3cc(Cl)cc(Cl)c3)C2(Cl)Cl)ccc1Cl (relative stereo) [F1641, trans-2-Chloro-5-(2,2-dichloro-3-(3,5-dichlorophenyl)cyclopropane-1-carboxamido)-N-(4-fluoro-3-(2,2,2-trifluoroacetamido)phenyl)benzamide] the pest or weed control at 50 µg/cm2 [1, 7] was 50 to 100% and the pest or weed control at 50 µg/cm2 [2, 8] was 50 to 100%.
O=C(Nc1c(F)ccc(NC(=O)C(F)F)c1F)c1cc(NC(=O)[C@H]2[C@H](c3ccc(Cl)c(Cl)c3)C2(Cl)Cl)ccc1F [F1512, 5-((1R,3R)-2,2-Dichloro-3-(3,4-dichlorophenyl)cyclopropane-1-carboxamido)-N-(3-(2,2-difluoroacetamido)-2,6-difluorophenyl)-2-fluorobenzamide] showed a pest or weed control at 50 µg/cm2 [1, 7] of 50 to 100% and a pest or weed control at 50 µg/cm2 [2, 8] of 50 to 100%.
In the case of Cc1cc(F)c(NC(=O)c2cc(NC(=O)[C@H]3[C@H](c4ccc(F)c(Cl)c4)C3(Cl)Cl)ccc2Cl)cc1[N+](=O)[O-] [F1082, 2-Chloro-5-((1R,3R)-2,2-dichloro-3-(3-chloro-4-fluorophenyl)cyclopropane-1-carboxamido)-N-(2-fluoro-4-methyl-5-nitrophenyl)benzamide], the pest or weed control at 50 µg/cm2 [1, 3] was 50 to 100% and the pest or weed control at 50 µg/cm2 [2, 4] was 50 to 100%.
O=C(Nc1ccc(F)c(NC(=O)C(F)(F)F)c1F)c1cc(NC(=O)[C@H]2[C@H](c3cc(Cl)c(F)c(Cl)c3)C2(Cl)Cl)ccc1Cl (relative stereo) [F1332, trans-2-Chloro-5-(2,2-dichloro-3-(3,5-dichloro-4-fluorophenyl)cyclopropane-1-carboxamido)-N-(2,4-difluoro-3-(2,2,2-trifluoroacetamido)phenyl)benzamide] showed a pest or weed control at 50 µg/cm2 [1, 3] of 50 to 100% and a pest or weed control at 50 µg/cm2 [2, 4] of 50 to 100%.
For O=C(Nc1ccccc1)c1cc(NC(=O)[C@H]2[C@H](c3ccc(F)c(Cl)c3)C2(Cl)Cl)cc(Cl)c1F (relative stereo) [F1194, trans-3-Chloro-5-(2,2-dichloro-3-(3-chloro-4-fluorophenyl)cyclopropane-1-carboxamido)-2-fluoro-N-phenylbenzamide], the pest or weed control at 50 µg/cm2 [1, 3] was 50 to 100% and the pest or weed control at 50 µg/cm2 [2, 4] was 50 to 100%.
In the case of Nc1c(F)ccc(NC(=O)c2cc(NC(=O)[C@H]3[C@H](c4ccc(F)c(Br)c4)C3(Cl)Cl)ccc2Cl)c1F [F1713, N-(3-Amino-2,4-difluorophenyl)-5-((1R,3R)-3-(3-bromo-4-fluorophenyl)-2,2-dichlorocyclopropane-1-carboxamido)-2-chlorobenzamide], the pest or weed control at 50 µg/cm2 [1, 7] was 50 to 100% and the pest or weed control at 50 µg/cm2 [2, 8] was 50 to 100%.
CC(=O)Nc1ccc(F)c(NC(=O)c2cc(NC(=O)[C@H]3[C@H](c4ccc(Cl)c(Cl)c4)C3(Cl)Cl)cc(C)c2Cl)c1F [F1523, N-(3-Acetamido-2,6-difluorophenyl)-2-chloro-5-((1R,3R)-2,2-dichloro-3-(3,4-dichlorophenyl)cyclopropane-1-carboxamido)-3-methylbenzamide] was tested, and the pest or weed control at 50 µg/cm2 [1, 7] was 50 to 100% and the pest or weed control at 50 µg/cm2 [2, 8] was 50 to 100%.
CC(C)(C)OC(=O)Nc1c(F)ccc(NC(=O)c2cc(NC(=O)[C@H]3[C@H](c4cc(F)cc(Br)c4F)C3(Cl)Cl)ccc2Cl)c1F (relative stereo) [F1095, trans-tert-Butyl-(3-(5-(3-(3-bromo-2,5-difluorophenyl)-2,2-dichlorocyclopropane-1-carboxamido)-2-chlorobenzamido)-2,6-difluorophenyl)carbamate] gave a pest or weed control at 50 µg/cm2 [1, 3] of 50 to 100% and a pest or weed control at 50 µg/cm2 [2, 4] of 50 to 100%.
Cc1cc(NC(=O)[C@H]2[C@H](c3ccc(F)c(C(F)(F)F)c3)C2(Cl)Cl)cc(C(=O)Nc2cc(N)c(F)cc2F)c1Cl [F1478, N-(5-Amino-2,4-difluorophenyl)-2-chloro-5-((1R,3R)-2,2-dichloro-3-(4-fluoro-3-(trifluoromethyl)phenyl)cyclopropane-1-carboxamido)-3-methylbenzamide] was tested, and the pest or weed control at 50 µg/cm2 [1, 7] was 50 to 100% and the pest or weed control at 50 µg/cm2 [2, 8] was 50 to 100%.
O=C(Nc1ccc(F)c(NC(=O)C(F)F)c1F)c1cc(NC(=O)[C@H]2[C@H](c3ccc(Cl)c(Cl)c3)C2(Cl)Cl)cc(F)c1Cl [F1287, 2-Chloro-5-((1R,3R)-2,2-dichloro-3-(3,4-dichlorophenyl)cyclopropane-1-carboxamido)-N-(3-(2,2-difluoroacetamido)-2,4-difluorophenyl)-3-fluorobenzamide] gave a pest or weed control at 50 µg/cm2 [1, 3] of 50 to 100% and a pest or weed control at 50 µg/cm2 [2, 4] of 50 to 100%.
With Cc1cc(O)ccc1NC(=O)c1cc(NC(=O)[C@H]2[C@H](c3cc(Cl)cc(Cl)c3)C2(Cl)Cl)ccc1Cl (relative stereo) [F1224, trans-2-chloro-5-(2,2-dichloro-3-(3,5-dichlorophenyl)cyclopropane-1-carboxamido)-N-(4-hydroxy-2-methylphenyl)benzamide] the pest or weed control at 50 µg/cm2 [1, 3] was 50 to 100% and the pest or weed control at 50 µg/cm2 [2, 4] was 50 to 100%.
In the case of O=C(Nc1ccc(F)c(NC(=O)C(F)F)c1F)c1cc(NC(=O)[C@H]2[C@H](c3cc(Cl)c(F)c(Cl)c3)C2(Cl)Cl)ccc1Cl (relative stereo) [F1331, trans-2-Chloro-5-(2,2-dichloro-3-(3,5-dichloro-4-fluorophenyl)cyclopropane-1-carboxamido)-N-(3-(2,2-difluoroacetamido)-2,4-difluorophenyl)benzamide], the pest or weed control at 50 µg/cm2 [1, 3] was 50 to 100% and the pest or weed control at 50 µg/cm2 [2, 4] was 50 to 100%.
In the case of O=C(NNC(=O)C1CC1(F)F)c1cc(NC(=O)[C@H]2[C@H](c3cc(Cl)cc(Cl)c3)C2(Cl)Cl)ccc1Cl (relative stereo) [F2517, trans-2,2-Dichloro-N-(4-chloro-3-(2-(2,2-difluorocyclopropane-1-carbonyl)hydrazine-1-carbonyl)phenyl)-3-(3,5-dichlorophenyl)cyclopropane-1-carboxamide], the pest or weed control at 50 µg/cm2 [1, 5] was 50 to 100% and the pest or weed control at 50 µg/cm2 [2, 6] was 50 to 100%.
O=C(NCCCCl)c1cc(NC(=O)[C@H]2[C@H](c3ccc(F)c(Cl)c3)C2(Cl)Cl)cc(F)c1F (relative stereo) [F2052, trans-N-(3-Chloropropyl)-5-(2,2-dichloro-3-(3-chloro-4-fluorophenyl)cyclopropane-1-carboxamido)-2,3-difluorobenzamide] gave a pest or weed control at 50 µg/cm2 [1, 5] of 50 to 100% and a pest or weed control at 50 µg/cm2 [2, 6] of 50 to 100%.
For O=C(Nc1cc(NC(=O)C(F)(F)F)ccc1F)c1cc(NC(=O)[C@H]2[C@H](c3cc(Cl)cc(Cl)c3)C2(Cl)Cl)ccc1Cl (relative stereo) [F1640, trans-2-Chloro-5-(2,2-dichloro-3-(3,5-dichlorophenyl)cyclopropane-1-carboxamido)-N-(2-fluoro-5-(2,2,2-trifluoroacetamido)phenyl)benzamide], the pest or weed control at 50 µg/cm2 [1, 7] was 50 to 100% and the pest or weed control at 50 µg/cm2 [2, 8] was 50 to 100%.
Work on Cc1cc(NC(=O)[C@H]2[C@H](c3ccc(F)c(C(F)(F)F)c3)C2(Cl)Cl)cc(C(=O)Nc2cc(NC(=O)C(F)(F)F)c(F)cc2F)c1Cl [F1501, 2-Chloro-5-((1R,3R)-2,2-dichloro-3-(4-fluoro-3-(trifluoromethyl)phenyl)cyclopropane-1-carboxamido)-N-(2,4-difluoro-5-(2,2,2-trifluoroacetamido)phenyl)-3-methylbenzamide] yielded a pest or weed control at 50 µg/cm2 [1, 7] of 50 to 100% and a pest or weed control at 50 µg/cm2 [2, 8] of 50 to 100%.
For O=C(Nc1cc(NC(=O)C(F)(F)F)c(F)cc1F)c1cc(NC(=O)[C@H]2[C@H](c3ccc(F)c(C(F)(F)F)c3)C2(Cl)Cl)cc(F)c1Cl [F1407, 2-Chloro-5-((1R,3R)-2,2-dichloro-3-(4-fluoro-3-(trifluoromethyl)phenyl)cyclopropane-1-carboxamido)-N-(2,4-difluoro-5-(2,2,2-trifluoroacetamido)phenyl)-3-fluorobenzamide], the pest or weed control at 50 µg/cm2 [1, 7] was 50 to 100% and the pest or weed control at 50 µg/cm2 [2, 8] was 50 to 100%.
